Entries after “also recorded” stand apart in the source; their conditions may differ.

The term melting point denotes the temperature, or range, at which the solid turns liquid.

The subject of one data set is TA100. In words: Ames test: toxicity test using TA100 strain. The format is cell-based, Salmonella typhimurium. To be noted: up to 5000 μg/plate (10-5000 μg/plate). The text has this:
(§1) AMES test or bacterial reverse mutation test uses five mutant strains (i.e., TA98, TA100, TA1535, TA1537, TA102) of Salmonella typhimurium to test the mutagenicity of chemical substances (Kristien Mortelmans and Errol Zeiger, The Ames Salmonella/microsome mutagenicity assay, Mutation Research 2000, 455, 29-60 and the relevant reference cited therein). These mutants are called his mutants because of their dependence on an external source of histidine to grow. The test also uses one trp mutant strain WP2 uvrA (which needs external supply of tryptophan for its growth) of Escherichia coli (Kristein Mortelmans and Edward S. Riccio, The bacterial tryptophan reverse mutation assay with Escherichia coli WP2, Mutation Research 2000, 455, 61-69 and the relevant references cited therein). If the bacteria are incubated in the presence of a mutagen, a reverse mutation is induced, and the bacteria will grow. However, if the chemical substance is not mutagenic, there will be no reversion and thus no growth. The result is thus obtained in the absence of metabolic activation. Because many chemicals that are poor mutagens become potent mutagens after they have passed through the liver, homogenate of rat liver, called the S9 extract, are added to the bacteria before incubation. The bacteria/S9 mixture is then plated on a medium containing no histidine (use of tryptophan-deficient medium in case of E. coli strain), and the test chemical is placed in the center of the plate. The result is thus obtained in the presence of metabolic activation. A second plate that contains a non-mutagenic solvent as a negative control and a third plate that contains a known mutagen as a positive control are also run simultaneously. All the 3 types of plates (each type of plate, in fact, run simultaneously in triplicate for obtaining statistically significant data) are incubated for 48 hours at 37° C. The above procedure is called the plate incorporation method. The presence of numerous colonies of revertants in the test disk indicates a positive result: that is, the chemical substance is a mutagen (i.e., mutagenic if the increase in revertants is >2 fold for TA98, TA100, TA102 and WP2/uvrA or >3 fold for TA1535 and TA1537). Also, a positive result would be considered reliable when there is a dose-dependent increase in revertants at any two consecutive non-toxic concentrations which can be in the range of 10-5000 μg/plate. The presence of only a few spontaneous revertant colonies indicates a negative result. If a negative or equivocal result is obtained, the pre-incubation method is performed in which the cells are exposed to the test compounds for 30 min before plating. Also, before Ames test is initiated, a toxicity test on the chemical substance is performed using TA100 strain in the concentration range of 10-5000 μg/plate. […] When the test substance is found to be toxic at higher concentration range then the genotoxicity of that material is tested only in the non-toxic lower concentration range.
(In the Ames test, an excess of revertant colonies over the control signals mutagenicity.)

The test system of data set [1] is Salmonella strains TA100, TA98, TA1535, TA1537 and TA102 and Escherichia coli strain WP2 uvrA. Kind of data set: AMES genotoxicity assay (bacterial reverse mutation test), six strains. The format is cell-based, Salmonella typhimurium; Escherichia coli. To be noted: up to 5000 μg/plate (10-5000 μg/plate).
Source text: as §1

The next data set concerns rats. Kind of data set: Ulcerogenic activity (gastric ulcer lesions) in rats. The data set is classed as in vivo. The following applies: dose containing 100 mg/kg of naproxen; for Gastric ulcers (Mean ± SEM) (mm^2) @ 100 mg/kg eq. @ 5 hours: overnight fasted rats, sacrificed after 5 h, total area of lesions; for Ulcer development (in words): rats, 5 h. Here is the method: The animals were sacrificed after 5 h of drug administration. The stomachs of the animals treated were separated, perfused with 2% formalin (10 ml), and then a large curvature was excised. The severity of the mucosal damage was assessed on the basis of the size of the observed ulcer lesions in the images captured using a stereomicroscope attached to a digital camera (Stemi 2000, Zeiss, Germany). The Image Pro Plus software (version 5.1) was used to quantify the hemorrhagic/ulcer lesions in pixels and converted into mm^2. The total area of lesions were calculated for each treatment group and the measure of gastric ulcers (Mean±SEM) (mm^2) presented in Table 3.

Data set [2] relates to carrageenan-induced rat paw edema. Kind of data set: Anti-inflammatory activity in carrageenan-induced rat paw edema model. The format is in vivo, male Sprague-Dawley rats. To be noted: for Anti-inflammatory activity (% Inhibition) @ 3 hours / Anti-inflammatory activity (% Inhibition) @ 5 hours: inhibition of paw edema vs control, Mean ± SEM, n = 8; for Anti-inflammatory activity (% Inhibition) @ 3 hours: oral dose containing 5 mg/kg of naproxen in PEG 400, 3 hours after carrageenan; for Anti-inflammatory activity (% Inhibition) @ 5 hours: oral dose containing 5 mg/kg of naproxen in PEG 400, 5 hours after carrageenan. Here is the method: […] […] One hour later, carrageenan (100 μl, 1% w/v) was injected in to their paws. The control group received PEG 400 (1 ml/kg).

For the molecule `CC(=O)Nc1ccc(OC(=O)c2ccc(COC(=O)OC(C)O[N+](=O)[O-])cc2)cc1` (centres unmarked) [HD5-L20-R1, 4-Acetamidophenyl 4-(((1-(nitrooxy)ethoxy)carbonyloxy)methyl)benzoate], the melting point is 149 to 152 °C.
For `CCCCc1nc(Cl)c(COC(=O)c2ccc(COC(=O)OC(C)O[N+](=O)[O-])cc2)n1Cc1ccc(-c2ccccc2-c2nnn[nH]2)cc1` (centres unmarked) [HD6-L20-R1, (1-((2′-(1H-Tetrazol-5-yl)biphenyl-4-yl)methyl)-2-butyl-4-chloro-1H-imidazol-5-yl)methyl 4-(((1-(nitrooxy)ethoxy)carbonyloxy)methyl)benzoate], the melting point was in the range of 107 to 109 °C.
As to `COc1ccc2cc([C@H](C)C(=O)OCCSSCCOC(=O)OC(C)O[N+](=O)[O-])ccc2c1` (stereo partly drawn) [I-CD1-L1-R1, (2S)-2-((2-((1-(nitrooxy)ethoxy)carbonyloxy)ethyl)disulfanyl)ethyl 2-(6-methoxynaphthalen-2-yl)propanoate], the “Toxicity to TA100” value with TA100 is “non-toxic to TA100”. The “Genotoxicity to 6 strains” value in data set [1] is “non-mutagenic in all the aforementioned six bacterial strains; also recorded: Non-genotoxic”.
Consider `COc1ccc2cc([C@H](C)C(=O)OC/C=C\COC(=O)OC(C)O[N+](=O)[O-])ccc2c1` (stereo partly drawn) [I-CD1-L2-R1, (2S)-((Z)-4-((1-(nitrooxy)ethoxy)carbonyloxy)but-2-enyl) 2-(6-methoxynaphthalen-2-yl)propanoate], for which the melting point was in the range of 76 to 78 °C. Also, in the data set with rats, the “Gastric ulcers (Mean ± SEM) (mm^2) @ 100 mg/kg eq. @ 5 hours” value came to 0 ± 0 mm^2 and the “Ulcer development (in words)” value was “none of the animals treated with the nitric oxide releasing prodrug of naproxen, I-CD1-L2-R1 showed any signs of development of ulcers”. Further, the “Toxicity to TA100” value in the data set on TA100 was “non-toxic to TA100”. In addition, in data set [1], the “Genotoxicity to 6 strains” value is listed as “non-mutagenic in all the aforementioned six bacterial strains; also recorded: Non-genotoxic”. In data set [2] (carrageenan-induced rat paw edema model, dose containing 5 mg/kg of naproxen), the “Anti-inflammatory activity (in words)” value is reported as “anti-inflammatory activity comparable to that of naproxen”. Besides, in data set [2], the “Anti-inflammatory activity (% Inhibition) @ 3 hours” value amounted to 54.27 ± 5.31% and the “Anti-inflammatory activity (% Inhibition) @ 5 hours” value is 36.61 ± 8.92%.
For the molecule `COc1ccc2cc([C@H](C)C(=O)OCCCOC(=O)OC(C)O[N+](=O)[O-])ccc2c1` (stereo partly drawn) [I-CD1-L4-R1, (2S)-3-((1-(nitrooxy)ethoxy)carbonyloxy)propyl 2-(6-methoxynaphthalen-2-yl) propanoate], the “Toxicity to TA100” value in the data set with TA100 is “non-toxic to TA100”. Moreover, the “Genotoxicity to 6 strains” value in data set [1] was “non-mutagenic in all the aforementioned six bacterial strains; also recorded: Non-genotoxic”.
Molecule `COc1ccc2cc([C@H](C)C(=O)OCC[S+]([O-])CCOC(=O)OC(C)O[N+](=O)[O-])ccc2c1` (stereo partly drawn) [I-CD1-L16-R1, (2S)-2-(2-((1-(nitrooxy)ethoxy)carbonyloxy)ethylsulfinyl)ethyl 2-(6-methoxynaphthalen-2-yl)propanoate] returned a melting point of 112 to 115 °C. In addition, in the data set on TA100, the “Toxicity to TA100” value is reported as “non-toxic to TA100”. Also, the “Genotoxicity to 6 strains” value in data set [1] is listed as “non-mutagenic in all the aforementioned six bacterial strains; also recorded: Non-genotoxic”.
For `COc1ccc2cc([C@H](C)C(=O)OCCS(=O)(=O)CCOC(=O)OC(C)O[N+](=O)[O-])ccc2c1` (stereo partly drawn) [I-CD1-L17-R1, (2S)-2-(2-((1-(nitrooxy)ethoxy)carbonyloxy)ethylsulfonyl)ethyl 2-(6-methoxynaphthalen-2-yl)propanoate], in that order: 98 to 100 °C, “Non-toxic” and “Non-mutagenic with TA 1535”.
Turning to `COc1ccc2cc([C@H](C)C(=O)OCCCSCCCOC(=O)OC(C)O[N+](=O)[O-])ccc2c1` (stereo partly drawn) [I-CD1-L18-R1, (2S)-3-(3-((1-(nitrooxy)ethoxy)carbonyloxy)propylthio)propyl 2-(6-methoxynaphthalen-2-yl)propanoate], in the data set on TA100, the “Toxicity to TA100” value is given as “non-toxic to TA100”. In addition, the “Genotoxicity to 6 strains” value in data set [1] is recorded as “non-mutagenic in all the aforementioned six bacterial strains; also recorded: Non-genotoxic”.
With `CC(OC(=O)OC/C=C\COC(=O)C[C@H](O)C[C@H](O)CCn1c(-c2ccc(F)cc2)c(-c2ccccc2)c(C(=O)Nc2ccccc2)c1C(C)C)O[N+](=O)[O-]` (stereo partly drawn) [I-CD8-L2-R1, (3R,5R)-((Z)-4-((1-(nitrooxy)ethoxy)carbonyloxy)but-2-enyl) 7-(2-(4-fluorophenyl)-5-isopropyl-3-phenyl-4-(phenylcarbamoyl)-1H-pyrrol-1-yl)-3,5-dihydroxyheptanoate], the melting point lay in the range of 56 to 58 °C.
Consider `CCCC1O[C@@H]2C[C@H]3[C@@H]4CCC5=CC(=O)C=C[C@]5(C)[C@H]4[C@@H](O)C[C@]3(C)[C@]2(C(=O)COC(=O)c2ccc(COC(=O)OC(C)O[N+](=O)[O-])cc2)O1` (some centres unmarked) [I-HD4-L20-R1], for which the “Toxicity to TA100” value with TA100 is on record as “Non-toxic”. Further, the “Genotoxicity to 6 strains” value in data set [1] is “Non-mutagenic with TA 1535”.
Turning to `COc1ccc2cc([C@H](C)C(=O)O)ccc2c1` [Naproxen, naproxen, reference compound], in the data set on rats, the “Gastric ulcers (Mean ± SEM) (mm^2) @ 100 mg/kg eq. @ 5 hours” value turned out to be 75 ± 13 mm^2 and the “Ulcer development (in words)” value was “severe haemorrhagic lesions”. Further, in data set [2], the “Anti-inflammatory activity (% Inhibition) @ 3 hours” value worked out at 65.45 ± 5.84% and the “Anti-inflammatory activity (% Inhibition) @ 5 hours” value worked out at 49.09 ± 10.35%.

The values are drawn from US20110263526A1, “Nitric Oxide Releasing Prodrugs of Therapeutic Agents” (PIRAMAL LIFE SCIENCES LIMITED, priority 2010, published 2011).
